Laboratory results: patent publication US8835466B2, “Synthesis and uses of pyroglutamic acid derivatives” (Prodimed, S.A., priority 2006, dated 2014)

Assays:
[1] = tested on: Renca cells (renal cell carcinoma); assay: Effect of isomers on in vivo tumour growth in mice challenged with Renca cells (Example 7); parameters: species or system Balb/c mice; settings: for Tumour surface, overall values (Mean) / Tumour surface, overall values (Median) / Tumour volume, overall values (Mean) / Tumour volume, overall values (Median): 260 ng/mouse i.p. days 6, 7, 14
Source text: This assay was made in order to check the effect of each stereoisomer on in vivo tumour growth in mice challenged with Renca cells. Their effect was compared with placebo. The stereoisomers assayed were:
Renca is a renal cell carcinoma originated in Balb/c mouse strain, and therefore syngeneic in mice with Balb/c genetic background [Melder R J et al., Cancer Immunol. Immunother., 2005, 54:535-547; Felluga B et al., 1969, J. Natl. Cancer Inst. 43:319-333]. Renca is considered a moderate immunogenic tumour and used as suitable model for testing immunointervention approaches [Salup R R, et al., 1992, The Journal of Urology, 147:1120-1123].
(§1) Renca cells (CLS, Eppelheim, Germany) were maintained in vitro by serial passages every 3-4 days. Cultures were performed with RPMI medium medium (RPMI, 10% foetal calf serum, 2 mM L-glutamine, non essential amino acids, 1 mM sodium pyruvate, 20 mM HEPES, 80 μg/mL gentamycin; all of them were purchased from Sigma, St. Louis, Mo., USA) by seeding 5×10^6 cells onto 75 cm^2 culture flasks. Tumour cells collected from 48 hour cultures upon trypsinization (Sigma, St. Louis, Mo., USA) were used as source of Renca cells for the studies described below.
Each isomer was tested at the dose levels of 260 ng administered on days 6, 7 and 14 after tumour inoculation.
The treatments were given by intraperitoneal route (i.p.). The volume inoculated was 0.2 mL/animal. This route was chosen because it is the one described in the original method [Pérez S, et al., 2003, Clinical Cancer Research. 9:5776-5785].
Tumours were established by subcutaneous inoculation in the right hind flank. Mice (Balb/c) were inoculated with 0.2 mL containing 10^5 viable Renca cells. The day of subcutaneous inoculation will be considered Day 0 of the test.
Mice were observed daily and the tumour size recorded twice a week. This was carried out by measuring two perpendicular diameters (L/W) with a calliper. These measures were used to obtain both tumour surface and volume: Tumour surface=L×W(mm^2) Tumour volume=L×W^2×½(mm^3)
(§2) Results were expressed as single values and/or as the mean±SD or median from each experimental group.
(§3) A case-control study was performed with treated and control mice in order to determine whether differences between isomers and administration of placebo were present. […] The U-test of Mann Withney was chosen for being one of the better known non-parametrical tests, anyway, results for this test are equivalent both to those of Wilcoxon's sum of ranges and Kruskal-Wallis two-groups test.
Due to the high dispersion of data, outlayers (animals beyond percentile 25 or above percentile 75 for tumour surface at day 25) were excluded of the study.

[2] = tested on: ASB XIV cells (pulmonary squamous cell carcinoma); assay: Effect of isomers and BLAS on in vivo tumour growth, ASB XIV tumours (Example 8); parameters: species or system Balb/c mice; settings: for Tumour surface, overall values (Mean) / Tumour surface, overall values (Median) / Tumour volume, overall values (Mean) / Tumour volume, overall values (Median): 260 ng/mouse i.p. days 6, 7 and 14
Source text: This assay was made in order to compare the effect of each stereoisomer on in vivo tumour growth in mice with the effect of the mixture of all of them challenged with ASB XIV tumours. The stereoisomers assayed were the same as in example 7 above plus a mixture of all of them (BLAS). The equipment (when needed), reagents, dose, vehicle and route and volume of administration were the same as in example 7.
ASB XIV is a pulmonary squamous cell carcinoma originated in Balb/c mouse strain, and therefore syngeneic in mice with Balb/c genetic background.
as §1, with “ASB XIV cells” for “Renca cells”, “essential aminoacids,” for “essential amino acids,”, “of ASB XIV” for “of Renca”, “cells in” for “cells for”, “the present example.” for “the studies described below.”
• BLAS (mixture of isomers 1, 2, 3 and 4) at a concentration of 65 μg/mL in sterile physiological saline. Isomer 1 (9b) at a concentration of 65 μg/mL in sterile physiological saline. • Isomer 2 (9c) at a concentration of 65 μg/mL in sterile physiological saline. • Isomer 3 (9a) at a concentration of 65 μg/mL in sterile physiological saline. • Isomer 4 (9d) at a concentration of 65 μg/mL in sterile physiological saline. Placebo
Tumours were established by subcutaneous inoculation in the right hind flank. Mice (Balb/c) were inoculated with 0.2 mL containing 2×10^5 viable ASB XIV cells. The day of subcutaneous inoculation will be considered Day 0 of the test.
Mice were observed daily and the tumour size recorded twice a week. This was carried out by measuring two perpendicular diameters (d1/d2) with a calliper. These measures were used to obtain both tumour surface and volume: Tumour surface=d1×d2(mm^2) Tumour volume=d1×d2^2×½(mm^3)
as §2
as §3, with “BLAS or each diferent stereoisomer” for “isomers”
Due to the high dispersion of data, outlayers (animals beyond percentile 10 or above percentile 90 for tumour surface at day 33) were excluded of the study.

[3] = day 11 after tumour inoculation
[4] = day 14 after tumour inoculation
[5] = day 12 after tumour inoculation
[6] = day 15 after tumour inoculation
[7] = day 19 after tumour inoculation
[8] = day 22 after tumour inoculation
[9] = day 26 after tumour inoculation
[10] = day 29 after tumour inoculation
[11] = day 33 after tumour inoculation

Br.N[C@]1(C[n+]2ccccc2)C[C@@H](C(=O)O)NC1=O.[Br-] (single isomer, unassigned; isomer 3) [isomer 3, 3S,5S-1-(3-Amino-5-carboxy-2-oxopyrrolidin-3-ylmethyl)pyridinium bromide hidrobromide]
Inhibition of the in vivo growth of the renal cell carcinoma (Renca), in words ([1]; 260 ng i.p. days 6, 7, 14): inhibit the in vivo growth | Tumour surface, overall values (Mean) ([1]; day 0 after tumour inoculation): 0 mm^2 | Tumour surface, overall values (Median) ([1]; day 0 after tumour inoculation): 0 mm^2 | Tumour volume, overall values (Mean) ([1]; day 0 after tumour inoculation): 0 mm^3 | Tumour volume, overall values (Median) ([1]; day 0 after tumour inoculation): 0 mm^3 | Tumour surface, overall values (Mean) [1, 3]: 0.3 mm^2 | Tumour surface, overall values (Median) [1, 3]: 0 mm^2 | Tumour volume, overall values (Median) [1, 3]: 0 mm^3 | Tumour surface, overall values (Median) [1, 4]: 4 mm^2 | Tumour volume, overall values (Median) [1, 4]: 4 mm^3 | Differences in Renca tumour growth rate vs. placebo, statistical significance p (Mann-Whitney U test) ([1]; either in surface or volume, days 18th and 25th of tumour development): < 0.05 | Inhibition of the in vivo growth of the lung carcinoma ASB XIV, in words ([2]; 260 ng i.p. days 6, 7 and 14): inhibit the in vivo growth | Tumour surface, overall values (Mean) ([2]; day 0 after tumour inoculation): 0 mm^2 | Tumour surface, overall values (Median) ([2]; day 0 after tumour inoculation): 0 mm^2 | Tumour volume, overall values (Mean) ([2]; day 0 after tumour inoculation): 0 mm^3 | Tumour volume, overall values (Median) ([2]; day 0 after tumour inoculation): 0 mm^3 | Tumour surface, overall values (Mean) ([2]; day 8 after tumour inoculation): 0 mm^2 | Tumour surface, overall values (Median) ([2]; day 8 after tumour inoculation): 0 mm^2 | Tumour volume, overall values (Mean) ([2]; day 8 after tumour inoculation): 0 mm^3 | Tumour volume, overall values (Median) ([2]; day 8 after tumour inoculation): 0 mm^3 | Tumour surface, overall values (Mean) [2, 5]: 0.29 mm^2 | Tumour surface, overall values (Median) [2, 5]: 0 mm^2 | Tumour volume, overall values (Mean) [2, 5]: 0.44 mm^3 | Tumour volume, overall values (Median) [2, 5]: 0 mm^3 | Tumour surface, overall values (Mean) [2, 6]: 2.81 mm^2 | Tumour surface, overall values (Median) [2, 6]: 0 mm^2 | Tumour volume, overall values (Mean) [2, 6]: 6.31 mm^3 | Tumour volume, overall values (Median) [2, 6]: 0 mm^3 | Tumour surface, overall values (Mean) [2, 7]: 15.16 mm^2 | Tumour surface, overall values (Median) [2, 7]: 9 mm^2 | Tumour volume, overall values (Mean) [2, 7]: 44.13 mm^3 | Tumour volume, overall values (Median) [2, 7]: 13.5 mm^3 | Tumour surface, overall values (Mean) [2, 8]: 33.16 mm^2 | Tumour surface, overall values (Median) [2, 8]: 25 mm^2 | Tumour volume, overall values (Mean) [2, 8]: 116.65 mm^3 | Tumour volume, overall values (Median) [2, 8]: 62.5 mm^3 | Tumour surface, overall values (Mean) [2, 9]: 68.67 mm^2 | Tumour surface, overall values (Median) [2, 9]: 64 mm^2 | Tumour volume, overall values (Mean) [2, 9]: 337.18 mm^3 | Tumour volume, overall values (Median) [2, 9]: 256 mm^3 | Tumour surface, overall values (Mean) [2, 10]: 94.61 mm^2 | Tumour surface, overall values (Median) [2, 10]: 99 mm^2 | Tumour volume, overall values (Mean) [2, 10]: 529.37 mm^3 | Tumour volume, overall values (Median) [2, 10]: 445.5 mm^3 | Tumour surface, overall values (Mean) [2, 11]: 131.35 mm^2 | Tumour surface, overall values (Median) [2, 11]: 140 mm^2 | Tumour volume, overall values (Mean) [2, 11]: 848.87 mm^3 | Tumour volume, overall values (Median) [2, 11]: 700 mm^3 | Differences in ASB XIV tumour growth rate vs. placebo, statistical significance p (Mann-Whitney U test) ([2]; either in surface or volume, all days scored after the day 26th): < 0.05

Br.N[C@@]1(C[n+]2ccccc2)C[C@H](C(=O)O)NC1=O.[Br-] (single isomer, unassigned; isomer 2) [isomer 2, 3R,5R-1-(3-Amino-5-carboxy-2-oxopyrrolidin-3-ylmethyl)pyridinium bromide hidrobromide]
Tumour surface, overall values (Mean) ([1]; day 0 after tumour inoculation): 0 mm^2 | Tumour surface, overall values (Median) ([1]; day 0 after tumour inoculation): 0 mm^2 | Tumour volume, overall values (Mean) ([1]; day 0 after tumour inoculation): 0 mm^3 | Tumour volume, overall values (Median) ([1]; day 0 after tumour inoculation): 0 mm^3 | Tumour surface, overall values (Median) [1, 3]: 0 mm^2 | Tumour volume, overall values (Median) [1, 3]: 0 mm^3 | Tumour surface, overall values (Median) [1, 4]: 9 mm^2 | Tumour surface, overall values (Mean) ([2]; day 0 after tumour inoculation): 0 mm^2 | Tumour surface, overall values (Median) ([2]; day 0 after tumour inoculation): 0 mm^2 | Tumour volume, overall values (Mean) ([2]; day 0 after tumour inoculation): 0 mm^3 | Tumour volume, overall values (Median) ([2]; day 0 after tumour inoculation): 0 mm^3 | Tumour surface, overall values (Mean) ([2]; day 8 after tumour inoculation): 0 mm^2 | Tumour surface, overall values (Median) ([2]; day 8 after tumour inoculation): 0 mm^2 | Tumour volume, overall values (Mean) ([2]; day 8 after tumour inoculation): 0 mm^3 | Tumour volume, overall values (Median) ([2]; day 8 after tumour inoculation): 0 mm^3 | Tumour surface, overall values (Mean) [2, 5]: 0.71 mm^2 | Tumour surface, overall values (Median) [2, 5]: 0 mm^2 | Tumour volume, overall values (Mean) [2, 5]: 1 mm^3 | Tumour volume, overall values (Median) [2, 5]: 0 mm^3 | Tumour surface, overall values (Mean) [2, 6]: 6.19 mm^2 | Tumour surface, overall values (Median) [2, 6]: 0 mm^2 | Tumour volume, overall values (Mean) [2, 6]: 12.68 mm^3 | Tumour volume, overall values (Median) [2, 6]: 0 mm^3 | Tumour surface, overall values (Mean) [2, 7]: 29.84 mm^2 | Tumour surface, overall values (Median) [2, 7]: 25 mm^2 | Tumour volume, overall values (Mean) [2, 7]: 102.44 mm^3 | Tumour volume, overall values (Median) [2, 7]: 62.5 mm^3 | Tumour surface, overall values (Mean) [2, 8]: 63.55 mm^2 | Tumour surface, overall values (Median) [2, 8]: 56 mm^2 | Tumour volume, overall values (Mean) [2, 8]: 292.39 mm^3 | Tumour volume, overall values (Median) [2, 8]: 196 mm^3 | Tumour surface, overall values (Mean) [2, 9]: 105.97 mm^2 | Tumour surface, overall values (Median) [2, 9]: 110 mm^2 | Tumour volume, overall values (Mean) [2, 9]: 603.66 mm^3 | Tumour volume, overall values (Median) [2, 9]: 550 mm^3 | Tumour surface, overall values (Mean) [2, 10]: 142.45 mm^2 | Tumour surface, overall values (Median) [2, 10]: 144 mm^2 | Tumour volume, overall values (Mean) [2, 10]: 913.90 mm^3 | Tumour volume, overall values (Median) [2, 10]: 864 mm^3 | Tumour surface, overall values (Mean) [2, 11]: 188.87 mm^2 | Tumour surface, overall values (Median) [2, 11]: 210 mm^2 | Tumour volume, overall values (Mean) [2, 11]: 1377.02 mm^3 | Tumour volume, overall values (Median) [2, 11]: 1436.5 mm^3
